Each structure is given as a SMILES string. “Also recorded” adds a separate entry of the source.

Series [1] has as its system Il-1b-stimulated MIO-M1 cells. Description: Co-incubation with selective receptor antagonists in Il-1b-stimulated MIO-M1 cells. The format is cell-based, human. To be noted: co-incubation with FA + IL-1β, compared to Il1b and FA alone. The procedure:
FIG. 3 Contribution of glucocorticoid and mineralocorticoid receptor signalling to the anti-inflammatory effect of FA in vitro.
IL-1β and TNF-α were administered to MIO-M1 cells to initiate an inflammatory response in order to test the anti-inflammatory properties of the selected corticosteroids. MIO-M1 cells were grown to a cell density of 50,000 cells per well in a 24 well plate using growth media and foetal bovine serum as described (Section 2.1.1). MIO-M1 cells were challenged with either 1 ng/μl of IL-1β or TNF-α (R&D Systems, MN, USA). Experimental wells were treated with either 1 μg/μl FA, TA or Dexamethasone. Twelve hours post addition, growth medium was removed from each well and replaced with 860 μl of TRIzol (Thermo Fisher Scientific, MA, USA), agitated approximately 20 times and then placed in a clean 1.5 ml Eppendorf tube to extract ribonucleic acid (RNA).
Following purification of RNA, cDNA was synthesized using the Bioline Tetro kit (Bioline, Australia) as per the manufacturer's instructions. Quantitative Real Time Polymerase Chain Reaction (QRT-PCR) was undertaken to profile gene expression changes in animal and cell culture samples. TaqMan hydrolysis probes (Applied Biosystems, USA) and Gene Expression Master Mix (Applied Biosystems, USA) were used. A clear 384 well plate (Applied Biosystems, USA) was used with each biological sample plated in duplicate. A reaction mixture per sample was set up and included 0.5 μl cDNA, 4 μl Rnase Free Water, 5 μl Gene Expression Master Mix and 0.5 μl Taqman Primer Probe (Thermo Fisher Scientific), as listed in Table 2.5. The amplification of each sample was undertaken using a QuantStudio 12K Flex QRT-PCR machine (Applied Biosystems, USA). GAPDH was used as the reference gene using the comparative cycle threshold (Ct) method (ΔΔCt), as it is known not to change expression following retinal photo-oxidative damage. Data was analysed using the QuantStudio 12K Flex Software (Applied Biosystems, USA).

The next series relates to MIO-M1 cells. As to the kind of experiment: MTT assay, cell viability of MIO-M1 cells. The format is cell-based, human. The source says: (§1) The immortalised retinal cells used were as follows: MIO-M1 cells (Muller cell-derived; Müller 1 Moorefields, Institute of Ophthalmology, Dr A. Limb, Institute of Ophthalmology, University College, UK); ARPE19 (RPE-derived; ATCC CRL-2302, American Tissue Culture Collection, VA, USA); and 661W cells (photoreceptor-like derived; kindly gifted by Dr Muayyad R. Al-Ubaidi, Department of Cell Biology, University of Oklahoma Health Sciences Centre, Oklahoma City, OK, USA). Cells were authenticated and validated from Cell Bank Australia.
(§2) The immortalised retinal cell lines MIO-M1, 661W and ARPE19 were used to undertake the MTT assay to assess cell metabolic activity, based on the cell's availability of NAPDH. Treatments included exposure to one of FA (10-0.01 μg/μl, provided by Professor Ben Boyd, Monash University, Australia), TA (10-0.01 μg/p, Honeywell, USA) and Dexamethasone (10-0.0001 μg/μl, Sigma-Aldrich, MO, USA). All corticosteroids used in vitro were dissolved in 20% dimethyl sulfoxide (DMSO) (Sigma-Aldrich, MO, USA) and ultrapure endotoxin 0.1M PBS (Thermo Fisher Scientific, MA, USA). At the 12-hour time point following addition of the corticosteroid, 10p of MTT reagent (Roche, Switzerland) was added to each well. To protect against light, plates were wrapped in foil and stored in the dark at 37° C. for 4 hours at 5.0% CO2. Cells were monitored using a bright field Zeiss Axiovert 200 inverted microscope (Carl Zeiss Meditec, Dublin, CA. USA) for formation of insoluble purple formazan precipitate crystals in viable cells. Subsequently 100p of MTT solubilisation solution was added and once again incubated in darkness at 37° C., 5.0% CO2 for 24 hours. Quantification of the MTT assay was performed by measuring the absorbance at 570 nm using Tecan Infinite® 200 PRO (Tecan, Mannedorf, Switzerland).
In general terms: Tetrazolium assays rely on reduction of a dye to a coloured formazan, in cell work by metabolically active cells.

Series [2] relates to C57BL/6J mice, photo-oxidative damage (PD). Description: Photo-oxidative damage (PD) model of retinal degeneration, intravitreal injection. The format is in vivo, mouse. From the text: All experiments conducted were in accordance with the ARVO Statement for Use of Animals in Ophthalmic and Vision Research, and with approval from the ANU Animal Experimentation Ethics Committee (AEEC, protocol #A2014/56). C57BL/6J mice aged 60 post-natal days were used in this study. Animals were born, reared and held under dim light conditions (5 lux) prior to photo-oxidative damage.
In vivo cross-sectional and fundus images of the mouse retina were acquired using Optical Coherence Tomography (OCT).
Intravitreal injections were performed on C57BL/6J mice aged 60 post-natal days. Treatments included exposure to FA or TA dissolved in Suspension (comprised of 0.5% w/v carboxymethyl cellulose and 0.4% v/v Tween 80). The final concentration of drug in the vitreous chamber is estimated to be as 1 mg/ml.
Age-matched C57BL/6J mice (60 post-natal days) were exposed to continuous 100K lux white LED light for 5 days with access to food and water ad libitum. During this time, 1% atropine sulphate (Minims 1% atropine sulphate eye drops; Bausch and Lomb, USA) was administered to both eyes twice daily to dilate the pupils. Animals were subsequently euthanised with carbon dioxide (CO2).
Electroretinography (ERG) was used to assess the retinal function response of rodents to full-field flash stimuli under scotopic conditions. Dim-reared control and photo-oxidative damaged animals were used, using known methods.
Animals were dark-adapted overnight before the commencement of ERG experiments. Animals were anaesthetised as previously described, and all retinal recordings were undertaken in a dark room with minimal red light source.
Terminal deoxynucleotidyl transferase (Tdt) dUTP nick end labelling (TUNEL) is an established technique used to detect apoptotic and necrotic cells.
The retina was evenly divided into 8 quadrants. Each quadrant was viewed using a confocal microscope (LSM 5, Zeiss, Germany) and TUNEL^+ and IBA1^+ cells were identified and counted. Data were graphed and analysed using Prism 6 software (GraphPad Software, CA, USA).

The next series relates to ARPE19 cells. As to the kind of experiment: MTT assay, cell viability of ARPE19 cells. The format is cell-based, human.
Text: as §1, §2

A further series relates to 661W cells. Description: MTT assay, cell viability of 661W cells. Type of series: cell-based, human.
Text: as §1, §2

[3] abbreviates: 10 ug/uL, compared to DMSO-only group.
The mark [4] stands for this setting: 10-0.01 μg/μl, 12 h, compared to DMSO-only group.

Turning to `C[C@]12CC[C@@H]3c4ccc(O)cc4C[C@@H](CCCCCCCCC[S+]([O-])CCCC(F)(F)C(F)(F)F)[C@H]3[C@@H]1CC[C@@H]2O` (some centres unmarked) [ICI182780], the “effect of receptor antagonist on FA-mediated suppression of Ccl2, Il-6, and Il-8” value (shortened to “effect of receptor antagonist”) in series [1] was “did not alter”.
In the case of `N#Cc1ccc([C@H]2CCCC[C@H]2O)cc1C(F)(F)F` [PF998425], the “effect of receptor antagonist” value in series [1] was “did not alter”.
`CC#C[C@]1(O)CC[C@H]2[C@@H]3CCC4=CC(=O)CCC4=C3[C@@H](c3ccc(N(C)C)cc3)C[C@@]21C` [RU486, Mifepristone]: the “effect of receptor antagonist” value in series [1] is given as “negated; also recorded: completely abrogate”.
The same measure, in the same setting: to `CCC[C@@H]1CC2=CC(=O)CC[C@]2(C)[C@H]2CC[C@@]3(C)[C@@H](CC[C@@]3(O)CCC(=O)[O-])[C@H]12.[K+]` [RU28318] belongs “did not significantly alter”.
For `CC1(C)O[C@@H]2C[C@H]3[C@@H]4CCC5=CC(=O)C=C[C@]5(C)[C@@]4(F)[C@@H](O)C[C@]3(C)[C@]2(C(=O)CO)O1` [TA, triamcinolone acetonide], the “viability of MIO-M1 cells at 1 μg/μl” value in the series on MIO-M1 cells (1 μg/μl) was “does not significantly alter cell viability”. Further, the “viability of MIO-M1 cells at the highest concentration” value in the series on MIO-M1 cells (setting [3]) is reported as “slight reduction”. Moreover, the “viability of MIO-M1 cells (MTT assay)” value in the series on MIO-M1 cells (setting [4]) was “do not induce toxicity; also recorded: did not have significant effect”. For the same compound, in series [2] (5 days PD, intravitreal, scotopic, versus controls), the “a-wave and b-wave ERG responses” value was “indistinguishable from PD controls/untreated animals”. Also, the “photoreceptor survival in PD” value in series [2] (intravitreal injection, mice) is recorded as “no significant effect”. In the series on ARPE19 cells (1 μg/μl), the “viability of ARPE19 cells at 1 μg/μl” value is recorded as “does not significantly alter cell viability”. For the same compound, the “viability of ARPE-19 cells (MTT assay)” value in the series with ARPE19 cells (setting [4]) is on record as “do not induce toxicity; also recorded: did not have significant effect”. For the same compound, in the series with 661W cells (1 μg/μl), the “viability of 661W cells at 1 μg/μl” value was “does not significantly alter cell viability”. Further, the “viability of 661W cells at the highest concentration” value with 661W cells (setting [3]) is on record as “slight reduction”. Moreover, the “viability of 661W cells (MTT assay)” value in the series with 661W cells (setting [4]) is given as “do not induce toxicity; also recorded: did not have significant effect”.

Values taken from patent publication US20250387410A1, “TREATMENT OF ANTI-VEGF REFRACTORY OPHTHALMIC RETINAL EYE CONDITIONS” (Eye Co Pty Ltd., priority 2022, published 2025).
